What was measured:
[1] = tested on: large crabgrass; assay: Test B pre-/postemergence herbicide test; format: in vivo, Digitaria sanguinalis; settings: for Crabgrass, Large plant response rating: postemergence
Summary of the method: (§1)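 Evaluation is visual, comparing treated with control plants on a scale where 0 means no effect and 100 means full control. Treatments were preemergence, or postemergence on seedlings 2–18 cm tall, and held 13–15 days in the greenhouse.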

[2] = tested on: pigweed; assay: Test B pre-/postemergence herbicide test; format: in vivo, Amaranthus retroflexus; settings: for Pigweed plant response rating: postemergence
Summary of the method: as §1

[3] = tested on: barnyardgrass; assay: Test B flooded paddy test; format: in vivo, Echinochloa crus-galli; settings: scale 0 to 100 (0 no effect, 100 complete control); for Barnyardgrass plant response rating: 1000 g ai/ha
Summary of the method: (§2)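 Visual control ratings, 0–100 versus untreated controls, taken after 13 to 15 days in the greenhouse. Blackgrass received a postemergence spray at the 1- to 4-leaf stage (2–18 cm); ducksalad, umbrella sedge and barnyardgrass were flooded-paddy treated at 2 leaves.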

[4] = tested on: ducksalad; assay: Test B flooded paddy test; format: in vivo, Heteranthera limosa; settings: scale 0 to 100 (0 no effect, 100 complete control); for Ducksalad plant response rating: 1000 g ai/ha
Summary of the method: as §2

[5] = tested on: small flower umbrella sedge; assay: Test B flooded paddy test; format: in vivo, Cyperus difformis; settings: scale 0 to 100 (0 no effect, 100 complete control); for Sedge, Umbrella plant response rating: 1000 g ai/ha
Summary of the method: as §2

[6] = tested on: wild oat; assay: Test B postemergence herbicide test; format: in vivo, Avena fatua; settings: postemergence
Summary of the method: (§3)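 Formulated test chemicals went onto postemergence plants measuring 2 to 18 cm, at one to four leaves. For the paddy assay, species had reached two leaves. Scoring took place 13–15 days later by eye, relative to untreated plants, using 0 for no effect up to 100 for full control.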

[7] = tested on: cocklebur; assay: Test B pre-/postemergence herbicide test; format: in vivo, Xanthium strumarium; settings: for Cocklebur plant response rating: postemergence
Summary of the method: (§4)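 Response was scored visually 13 to 15 days after treatment against untreated greenhouse controls, 0 meaning no effect and 100 complete control. Formulations (solvent mixture plus surfactant) went onto soil after planting, onto foliage of 1- to 4-leaf plants, and onto 2-leaf plants in a flooded paddy set including rice and barnyardgrass.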

[8] = tested on: wheat; assay: Test B postemergence herbicide test; format: in vivo, Triticum aestivum; parameters: key to Wheat plant response rating: 0 = no effect, 100 = complete control; settings: postemergence
Summary of the method: as §3

[9] = tested on: barnyardgrass; assay: Test B pre-/postemergence herbicide test; format: in vivo, Echinochloa crus-galli; settings: for Barnyardgrass plant response rating: postemergence
Summary of the method: as §4

[10] = tested on: corn; assay: Test B pre-/postemergence herbicide test; format: in vivo, Zea mays; settings: for Corn plant response rating: postemergence
Summary of the method: as §1

[11] = tested on: giant foxtail; assay: Test B pre-/postemergence herbicide test; format: in vivo, Setaria faberi; settings: for Foxtail, Giant plant response rating: postemergence
Summary of the method: as §1

[12] = tested on: rice; assay: Test B flooded paddy test; format: in vivo, Oryza sativa; settings: scale 0 to 100 (0 no effect, 100 complete control); for Rice plant response rating: 1000 g ai/ha
Summary of the method: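 Each value is a visual 0–100 response rating taken against controls 13 to 15 days after treatment in the greenhouse. Plants received formulated chemical postemergence at the 1- to 4-leaf stage or, in flooded paddy, at the 2-leaf stage.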

[13] = tested on: Surinam grass; assay: Test B pre-/postemergence herbicide test; format: in vivo, Urochloa decumbens; settings: for Surinam Grass plant response rating: postemergence
Summary of the method: as §1

[14] = tested on: blackgrass; assay: Test B postemergence herbicide test; format: in vivo, Alopecurus myosuroides; settings: postemergence
Summary of the method: as §2

[15] = tested on: morningglory; assay: Test B pre-/postemergence herbicide test; format: in vivo, Ipomoea coccinea; settings: for Morningglory plant response rating: postemergence
Summary of the method: as §4

[16] = tested on: lambsquarters; assay: Test B pre-/postemergence herbicide test; format: in vivo, Chenopodium album; settings: for Lambsquarters plant response rating: postemergence
Summary of the method: as §1

[17] = 125 g ai/ha, 0 = no effect, 100 = complete control, preemergence
[18] = 125 g ai/ha, visual rating, scale 0 (no effect) to 100 (complete control)
[19] = 500 g ai/ha, visual rating, 0 = no effect, 100 = complete control, preemergence
[20] = 500 g ai/ha, scale 0 to 100, 0 is no effect, 100 is complete control
[21] = 125 g ai/ha, 0 is no effect, 100 is complete control, preemergence

CCN(C)C(=O)c1ccc(F)c(NC(=O)C2CC(C(C)(C)C)=NN2CC)c1 (racemic) [Compound 307]
10: Crabgrass, Large plant response rating [1, 18] | Barnyardgrass plant response rating [9, 20] | Corn plant response rating [10, 20] | Surinam Grass plant response rating [13, 18] | Blackgrass plant response rating [14, 18] | Plant response rating, Morningglory [15, 19]
90: Crabgrass, Large plant response rating (0 to 100 scale) [1, 17] | Barnyardgrass plant response rating [3] | Sedge, Umbrella plant response rating [5] | Foxtail, Giant plant response rating (0 to 100 scale) [11, 17] | Plant response rating, Foxtail, Giant [11, 19] | Rice plant response rating [12] | Plant response rating, Surinam Grass [13, 19]
20: Oat, Wild plant response rating [6, 20] | Cocklebur plant response rating [7, 18] | Wheat plant response rating [8, 20] | Foxtail, Giant plant response rating [11, 18]
30: Crabgrass, Large plant response rating [1, 20] | Cocklebur plant response rating [7, 20] | Foxtail, Giant plant response rating [11, 20] | Surinam Grass plant response rating [13, 20] | Blackgrass plant response rating [14, 20]
70: Corn plant response rating (0 to 100 scale) [10, 17] | Surinam Grass plant response rating (0 to 100 scale) [13, 17]
0: Oat, Wild plant response rating [6, 18] | Wheat plant response rating [8, 18] | Barnyardgrass plant response rating [9, 18] | Morningglory plant response rating (0 to 100 scale) [15, 17] | Morningglory plant response rating [15, 18] | Morningglory plant response rating [15, 20]
80: Ducksalad plant response rating [4] | Cocklebur plant response rating (0 to 100 scale) [7, 17] | Barnyardgrass plant response rating (0 to 100 scale) [9, 17] | Plant response rating, Corn [10, 19] | Lambsquarters plant response rating [16, 20]
50: Pigweed plant response rating [2, 18]
60: Pigweed plant response rating [2, 20] | Lambsquarters plant response rating [16, 18]
100: Plant response rating, Crabgrass, Large [1, 19] | Pigweed plant response rating (0 to 100 scale) [2, 17] | Plant response rating, Pigweed [2, 19] | Plant response rating, Cocklebur [7, 19] | Plant response rating, Barnyardgrass [9, 19] | Lambsquarters plant response rating (0 to 100 scale) [16, 17] | Plant response rating, Lambsquarters [16, 19]

CCC1=NN(C(C)(C)C)CC1C(=O)Nc1cc(C(=O)N(C)C)ccc1F (racemic) [Compound 343]
50: Crabgrass, Large plant response rating [1, 20] | Barnyardgrass plant response rating [9, 20] | Foxtail, Giant plant response rating [11, 20] | Plant response rating (0 to 100 scale), Surinam Grass [13, 21] | Plant response rating (0 to 100 scale), Morningglory [15, 21]
30: Corn plant response rating [10, 20] | Plant response rating (0 to 100 scale), Foxtail, Giant [11, 21] | Foxtail, Giant plant response rating [11, 18] | Morningglory plant response rating [15, 18]
70: Plant response rating (0 to 100 scale), Barnyardgrass [9, 21]
90: Plant response rating (0 to 100 scale), Pigweed [2, 21] | Pigweed plant response rating [2, 20] | Barnyardgrass plant response rating [3] | Ducksalad plant response rating [4] | Sedge, Umbrella plant response rating [5] | Plant response rating, Cocklebur [7, 19] | Plant response rating (0 to 100 scale), Lambsquarters [16, 21]
10: Oat, Wild plant response rating [6, 18] | Oat, Wild plant response rating [6, 20] | Barnyardgrass plant response rating [9, 18] | Corn plant response rating [10, 18] | Surinam Grass plant response rating [13, 18] | Blackgrass plant response rating [14, 20]
100: Plant response rating, Crabgrass, Large [1, 19] | Plant response rating, Pigweed [2, 19] | Plant response rating, Barnyardgrass [9, 19] | Plant response rating, Foxtail, Giant [11, 19] | Plant response rating, Surinam Grass [13, 19] | Plant response rating, Morningglory [15, 19] | Plant response rating, Lambsquarters [16, 19] | Lambsquarters plant response rating [16, 20]
40: Plant response rating (0 to 100 scale), Crabgrass, Large [1, 21] | Pigweed plant response rating [2, 18] | Surinam Grass plant response rating [13, 20] | Lambsquarters plant response rating [16, 18]
0: Cocklebur plant response rating [7, 18] | Wheat plant response rating [8, 18] | Wheat plant response rating [8, 20] | Blackgrass plant response rating [14, 18]
20: Crabgrass, Large plant response rating [1, 18] | Cocklebur plant response rating [7, 20]
80: Rice plant response rating [12] | Morningglory plant response rating [15, 20]

CCNC(=O)c1cccc(NC(=O)c2nc(C(C)(C)C)nn2CC)c1 [Compound 446, 3-(1,1-dimethylethyl)-1-ethyl-N-[3-[(ethylamino)carbonyl]phenyl]-1H-1,2,4-triazole-5-carboxamide]
90%: pest or weed control at 500 g/ha ([3]; Echinochloa crus-galli, 336 h, 500 g ai/ha, read-out: Barnyardgrass plant response rating) | pest or weed control at 125 g/ha ([5]; Cyperus difformis, 336 h, 125 g ai/ha, read-out: Sedge, Umbrella plant response rating) | pest or weed control at 500 g/ha ([5]; Cyperus difformis, 336 h, 500 g ai/ha, read-out: Sedge, Umbrella plant response rating) | plant injury at 500 g/ha ([12]; Oryza sativa, 336 h, 500 g ai/ha, read-out: Rice plant response rating)
70%: pest or weed control at 125 g/ha ([3]; Echinochloa crus-galli, 336 h, 125 g ai/ha, read-out: Barnyardgrass plant response rating) | pest or weed control at 125 g/ha ([4]; Heteranthera limosa, 336 h, 125 g ai/ha, read-out: Ducksalad plant response rating)
80%: pest or weed control at 500 g/ha ([4]; Heteranthera limosa, 336 h, 500 g ai/ha, read-out: Ducksalad plant response rating) | plant injury at 125 g/ha ([12]; Oryza sativa, 336 h, 125 g ai/ha, read-out: Rice plant response rating)

Reference: patent US20060069132A1, “Azolecarboxamide herbicides” (priority 2004, published 2006)
